Measured values reported in patent US11518758B2, “Heteroarylaminopyrimidine amide autophagy inhibitors and methods of use thereof” (Deciphera Pharmaceuticals, LLC, priority 2019, dated 2022).

Biological target: T1, ULK1 kinase (Homo sapiens, UniProt O75385)
T1 construct: purchased Eurofins 14-959
T1 sequence (O75385 with tags, fused parts or gaps): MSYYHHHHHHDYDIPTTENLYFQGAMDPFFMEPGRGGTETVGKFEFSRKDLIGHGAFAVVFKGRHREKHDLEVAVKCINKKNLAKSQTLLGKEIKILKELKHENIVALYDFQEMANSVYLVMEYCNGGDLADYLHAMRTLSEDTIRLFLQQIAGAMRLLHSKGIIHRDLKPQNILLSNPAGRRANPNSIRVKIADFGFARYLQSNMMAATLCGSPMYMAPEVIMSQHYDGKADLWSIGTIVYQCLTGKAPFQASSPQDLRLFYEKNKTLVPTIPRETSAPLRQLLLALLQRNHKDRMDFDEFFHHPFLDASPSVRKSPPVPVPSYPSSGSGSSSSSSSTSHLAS
Assay: Biochemical assay for ULK1.2 (coupled pyruvate kinase/lactate dehydrogenase assay)
Conditions: 19 nM ULK1 (Eurofins), myelin basic protein, 1 mM ATP
Method: Example 174. Biochemical Assay for ULK1.2
Activity of ULK1 kinase was determined spectroscopically using a coupled pyruvate kinase/lactate dehydrogenase assay that continuously monitors the ATP hydrolysis-dependent oxidation of NADH (e.g., Schindler et al. Science (2000) 289: 1938-1942). Assays were conducted in 384-well plates (100 uL final volume) using 19 nM ULK1 (Eurofins CAT #14-959), 0.25 mg/mL myelin basic protein, 1.5 units pyruvate kinase, 2.1 units lactate dehydrogenase, 1 mM phosphoenol pyruvate, 0.28 mM NADH and 1 mM ATP in assay buffer (100 mM Tris, pH 7.5, 15 mM MgCl2, 0.5 mM DTT, 0.1% octyl-glucoside, 0.002% (w/v) BSA, and 0.002% Triton X-100). Inhibition of ULK1 was measured by adding serial diluted test compound (final assay concentration of 1% DMSO). A decrease in absorption at 340 nm was monitored continuously for 6 hours at 30° C. on a multi-mode microplate reader (BioTek). The reaction rate was calculated using the 2-3 h time frame. The reaction rate at each concentration of compound was converted to percent inhibition using controls (i.e. reaction with no test compound and reaction with a known inhibitor) and IC50 values were calculated by fitting a four-parameter sigmoidal curve to the data using Prism (GraphPad software).

Row | IC50 | Compound
1 | 25 to 100 nM | CC(C)N1CCC(n2cc(Nc3ncc(Cl)c(NCCCN4CCCCC4=O)n3)cn2)CC1 [Example 5]
2 | 1 to 25 nM | CN1CCC(n2cc(Nc3ncc(C(F)(F)F)c(NCCCN4CCCCC4=O)n3)cn2)CC1 [Example 10]
3 | 100 to 500 nM | CC(C)CN1CC(n2cc(Nc3ncc(Cl)c(NCCCN4CCCCC4=O)n3)cn2)C1 [Example 11]
4 | 1 to 25 nM | Cc1nn(C2CCN(CC3CC3)CC2)cc1Nc1ncc(C(F)(F)F)c(NCCCN2CCCCC2=O)n1 [Example 19]
5 | 100 to 500 nM | Cc1nn(CCN2CCCCC2)cc1Nc1ncc(C(F)(F)F)c(NCCCN2CCCCC2=O)n1 [Example 22]
6 | 100 to 500 nM | Cc1nn([C@@H]2CCN(C)C2)cc1Nc1ncc(Cl)c(NCCCN2CCCCC2=O)n1 [Example 24]
7 | 25 to 100 nM | Cc1nn(CCCN2CCCCC2)cc1Nc1ncc(C(F)(F)F)c(NCCCN2CCCCC2=O)n1 [Example 28]
8 | 100 to 500 nM | Cc1nn(CCCN2CCOCC2)cc1Nc1ncc(C(F)(F)F)c(NCCCN2CCCCC2=O)n1 [Example 30]
9 | 1 to 25 nM | Cc1nn([C@@H]2CCNC2)cc1Nc1ncc(C(F)(F)F)c(NCCCN2CCCCC2=O)n1 [Example 34]
10 | 25 to 100 nM | Cc1nn(CCCN(C)C)cc1Nc1ncc(C(F)(F)F)c(NCCCN2CCCCC2=O)n1 [Example 35]
11 | 25 to 100 nM | Cc1nn([C@@H]2CCN(C(C)C)C2)cc1Nc1ncc(C(F)(F)F)c(NCCCN2CCCCC2=O)n1 [Example 36]
12 | 1 to 25 nM | CCN1CCC(n2cc(Nc3ncc(C(F)(F)F)c(NCCCN4CCCCC4=O)n3)c(C)n2)CC1 [Example 37]
13 | 25 to 100 nM | CCc1nn(C2CCN(CC)CC2)cc1Nc1ncc(C(F)(F)F)c(NCCCN2CCCCC2=O)n1 [Example 42]
14 | 25 to 100 nM | CCc1nn(C2CCN(C(C)C)CC2)cc1Nc1ncc(C(F)(F)F)c(NCCCN2CCCCC2=O)n1 [Example 43]
15 | 100 to 500 nM | CCc1nn(C2CCN(CC)CC2)cc1Nc1ncc(Cl)c(NCCCN2CCCCC2=O)n1 [Example 46]
16 | 1 to 25 nM | CCc1nn(C2CCN(C)CC2)cc1Nc1ncc(C(F)(F)F)c(NCCCN2CCCCC2=O)n1 [Example 47]
17 | 1 to 25 nM | [2H]C([2H])([2H])N1CCC(n2cc(Nc3ncc(Br)c(NCCCN4CCCCC4=O)n3)c(C)n2)CC1 [Example 49]
18 | 25 to 100 nM | CCN1CCC(n2cc(Nc3ncc(Br)c(NCCCN4CCCCC4=O)n3)c(C)n2)CC1 [Example 50]
19 | 1 to 25 nM | [2H]C([2H])([2H])N1CCC(n2cc(Nc3ncc(C(F)(F)F)c(NCCCN4CCCCC4=O)n3)c(CC)n2)CC1 [Example 52]
20 | 100 to 500 nM | CCc1nn(C2CCN(C)CC2)cc1Nc1ncc(Cl)c(NCCCN2CCCCC2=O)n1 [Example 55]
21 | 100 to 500 nM | [2H]C([2H])([2H])N1CCC(n2cc(Nc3ncc(Cl)c(NCCCN4CCCCC4=O)n3)c(C)n2)CC1 [Example 57]
22 | 25 to 100 nM | Cc1nn(C2CCN(CCF)CC2)cc1Nc1ncc(C(F)(F)F)c(NCCCN2CCCCC2=O)n1 [Example 59]
23 | > 500 nM | Cc1nn(CCN2CCOCC2)cc1Nc1ncc(Br)c(NCCCN2CCCCC2=O)n1 [Example 63]
24 | 1 to 25 nM | Cc1nn([C@H]2CCNC2)cc1Nc1ncc(C(F)(F)F)c(NCCCN2CCCCC2=O)n1 [Example 65]
25 | 25 to 100 nM | CCc1nn(C2CCN(C(C)C)CC2)cc1Nc1ncc(C(F)(F)F)c(NCCCN2CCCOC2=O)n1 [Example 70]

Row | IC50 | Compound
26 | 100 to 500 nM | CCN1CCC(n2cc(Nc3ncc(C(F)(F)F)c(NCCCN4CCCC4=O)n3)c(C)n2)CC1 [Example 82]
27 | 1 to 25 nM | Cc1nn(C2CCN(C(C)C)CC2)cc1Nc1ncc(C(F)(F)F)c(NCCCN2CCCCCC2=O)n1 [Example 85]
28 | 25 to 100 nM | Cc1nn(C2CCN(C(C)C)CC2)cc1Nc1ncc(Cl)c(NCCCN2CCCCCC2=O)n1 [Example 87]
29 | 1 to 25 nM | CC(C)N1CCC(n2cc(Nc3ncc(C(F)(F)F)c(NCCCN4CCCCCC4=O)n3)cn2)CC1 [Example 88]
30 | 1 to 25 nM | Cc1nn(C2CCN(CC(C)C)CC2)cc1Nc1ncc(C(F)(F)F)c(NCCCN2CCCCCC2=O)n1 [Example 89]
31 | 1 to 25 nM | Cc1nn(C2CCN(C3CCC3)CC2)cc1Nc1ncc(C(F)(F)F)c(NCCCN2CCCCCC2=O)n1 [Example 92]
32 | 1 to 25 nM | Cc1nn(C2CCN(C3CCCC3)CC2)cc1Nc1ncc(C(F)(F)F)c(NCCCN2CCCCCC2=O)n1 [Example 93]
33 | 1 to 25 nM | Cc1nn([C@@H]2CCN(C(C)C)C2)cc1Nc1ncc(C(F)(F)F)c(NCCCN2CCCCCC2=O)n1 [Example 95]
34 | 1 to 25 nM | CC(C)CN1CC(n2cc(Nc3ncc(C(F)(F)F)c(NCCCN4CCCCCC4=O)n3)cn2)C1 [Example 97]
35 | 1 to 25 nM | [2H]C([2H])([2H])N1CCC(n2cc(Nc3ncc(C(F)(F)F)c(NCCCN4CCCCCC4=O)n3)c(C)n2)CC1 [Example 101]
36 | 100 to 500 nM | Cc1nn(CCCN2CCOCC2)cc1Nc1ncc(C(F)(F)F)c(NCCCN2CCCOCC2=O)n1 [Example 112]
37 | 1 to 25 nM | Cc1nn(C2CN(CC(C)C)C2)cc1Nc1ncc(C(F)(F)F)c(NCCCN2CCCC2=O)n1 [Example 128]
38 | 100 to 500 nM | Cc1nn([C@@H]2CCN(C)C2)cc1Nc1ncc(Cl)c(NCCCN2CCOCCC2=O)n1 [Example 134]
39 | 100 to 500 nM | CN1CCN(CCCNc2nc(Nc3cnn(C4CCN(C5CC5)CC4)c3)ncc2Cl)C1=O [Example 148]
40 | 100 to 500 nM | CC1(C)CCC(=O)N1CCCNc1nc(Nc2cnn(C3CCN(C4CC4)CC3)c2)ncc1Cl [Example 149]
41 | 1 to 25 nM | CN1CCC(n2cc(Nc3ncc(C(F)(F)F)c(NCCCN4CCN(C)C4=O)n3)cn2)CC1 [Example 151]
42 | > 500 nM | Cc1nn(C2CN(CC(C)C)C2)cc1Nc1ncc(Br)c(NCCCN2CCCC2=O)n1 [Example 154]
43 | 100 to 500 nM | CC1CCN(CCCNc2nc(Nc3cnn(C4CCN(C5CC5)CC4)c3)ncc2Cl)C1=O (centres unmarked) [Example 155]
44 | > 500 nM | Cc1nn([C@@H]2CCNC2)cc1Nc1ncc(Cl)c(NCCCN2CCCC2=O)n1 [Example 158]
45 | > 500 nM | Cc1nn([C@@H]2CCN(C)C2)cc1Nc1ncc(Cl)c(NCCCN2CCCC2=O)n1 [Example 160]
46 | > 500 nM | Cc1nn(C2CN(CC(C)C)C2)cc1Nc1ncc(Cl)c(NCCCN2CCCC2=O)n1 [Example 161]
47 | > 500 nM | Cc1nn(CCN2CCCC2)cc1Nc1ncc(Cl)c(NCCCN2CCCC2=O)n1 [Example 162]
48 | > 500 nM | Cc1nn(CCN2CCOCC2)cc1Nc1ncc(Cl)c(NCCCN2CCCC2=O)n1 [Example 163]
49 | 100 to 500 nM | Cc1nn([C@H]2CCNC2)cc1Nc1ncc(C(F)(F)F)c(NCCCN2CCCC2=O)n1 [Example 167]
50 | 100 to 500 nM | Cc1nn([C@@H]2CCNC2)cc1Nc1ncc(C(F)(F)F)c(NCCCN2CCCC2=O)n1 [Example 169]
